21 compounds from ChEMBL document CHEMBL3352132, “Synthesis, screening and docking of small heterocycles as glycogen phosphorylase inhibitors” (Eur J Med Chem, 2014) can be followed below.

Assay [1] has as its target T1, Glycogen phosphorylase, muscle form (Oryctolagus cuniculus, UniProt P00489).
T1 sequence (P00489 whole entry): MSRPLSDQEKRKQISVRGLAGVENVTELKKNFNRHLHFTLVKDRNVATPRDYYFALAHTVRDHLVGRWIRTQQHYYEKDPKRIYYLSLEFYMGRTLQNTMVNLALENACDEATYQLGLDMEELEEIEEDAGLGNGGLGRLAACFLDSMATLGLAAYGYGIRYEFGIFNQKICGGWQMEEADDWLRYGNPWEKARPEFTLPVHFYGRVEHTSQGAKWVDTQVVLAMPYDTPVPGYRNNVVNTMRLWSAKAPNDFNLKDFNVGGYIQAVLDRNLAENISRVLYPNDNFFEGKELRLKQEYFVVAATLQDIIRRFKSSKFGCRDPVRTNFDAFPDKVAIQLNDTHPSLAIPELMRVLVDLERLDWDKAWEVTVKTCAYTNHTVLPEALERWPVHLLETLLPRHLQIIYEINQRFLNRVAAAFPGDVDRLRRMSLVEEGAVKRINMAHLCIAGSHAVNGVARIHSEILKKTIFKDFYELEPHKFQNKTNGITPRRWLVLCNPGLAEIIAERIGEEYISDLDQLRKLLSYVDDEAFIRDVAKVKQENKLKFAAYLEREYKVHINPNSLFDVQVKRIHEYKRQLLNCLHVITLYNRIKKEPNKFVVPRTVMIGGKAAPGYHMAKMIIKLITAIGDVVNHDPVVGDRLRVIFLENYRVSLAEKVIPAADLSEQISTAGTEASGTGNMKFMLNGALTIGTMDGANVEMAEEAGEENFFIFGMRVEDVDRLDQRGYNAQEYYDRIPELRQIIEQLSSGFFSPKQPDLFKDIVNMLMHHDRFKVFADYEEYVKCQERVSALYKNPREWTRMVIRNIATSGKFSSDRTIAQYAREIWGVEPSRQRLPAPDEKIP
In words: (§1) Inhibition of rabbit muscle glycogen phosphorylase a assessed as inhibition of release of phosphate from glucose-1-phosphate after 30 mins by spectrophotometry.

Assay [2] deals with T2, Glycogen phosphorylase, muscle form (Oryctolagus cuniculus) (UniProt P00489).
T2 sequence (whole entry): T1 sequence (P00489 whole entry)
In words: Inhibition of rabbit muscle glycogen phosphorylase a assessed as inhibition of release of phosphate from glucose-1-phosphate at 222 mM after 30 mins by spectrophotometry.

Assay [3] deals with T2, Glycogen phosphorylase, muscle form (Oryctolagus cuniculus). The assay is described as §1.
Assay [4] has the same target. Briefly: Inhibition of rabbit muscle glycogen phosphorylase a assessed as inhibition of release of phosphate from glucose-1-phosphate at 111 mM after 30 mins by spectrophotometry.
For assay [5] the target is unchanged. In words: Inhibition of rabbit muscle glycogen phosphorylase a assessed as inhibition of release of phosphate from glucose-1-phosphate at 22 mM after 30 mins by spectrophotometry.
The target is the same in assay [6]. Briefly: Inhibition of rabbit muscle glycogen phosphorylase a assessed as inhibition of release of phosphate from glucose-1-phosphate at 56 mM after 30 mins by spectrophotometry.

Active and inactive are the calls of the source. The calls are words filed in the database; no cut-off is given here.

By IC50 is commonly meant the concentration that inhibits the measured activity by half. Turning to `c1ccc(C2=NCCO2)cc1`, in assay [1], the IC50 was 23.9 mM.
Same read-out and setting: to `CC(C)(C)OC(=O)N1CCCN=C1c1ccccc1` belongs 1.1 mM.
One may read the inhibition as the percentage by which the read-out fell short of the control. On to `O=C(NCCCCC(NC(=O)OCc1ccccc1)C(=O)N1CCOCC1)OCc1ccccc1` (stereo unspecified), for which, in assay [2], the inhibition stood at 5%.
In the case of `c1ccc(C2=NCCCCO2)cc1`, the IC50 in assay [1] was determined as 1.4 mM.
Consider `NCCCCC(N)C(=O)N1CCOCC1` (stereo unspecified), for which the outcome in assay [3] was inactive.
Consider `CC1CN=C(c2ccccc2)O1` (stereo unspecified), for which, in assay [4], the inhibition was determined as 78%.
On to `c1ccc(C2=NCCS2)cc1`, for which, in assay [5], the inhibition turned out to be 39%.
In the case of `c1ccc(C2=NCCCCN2)cc1`, the half-maximal inhibitory concentration (IC50) in assay [1] amounted to 3 mM.
As to `c1ccc(C2=NCCCO2)cc1`, the inhibition in assay [4] was determined as 39%.
Take `CC1(C)CN=C(c2ccccc2)NC1`: the IC50 in assay [1] was 1.2 mM.
Take `NC(CCC(=O)O)C(=O)N1CCOCC1` (stereo unspecified): the inhibition in assay [2] was found to be 25%.
Turning to `O=[N+]([O-])c1ccc(C2=NCCO2)cc1`, the inhibition in assay [6] is 94%.
With `c1ccc(C2=NCCCN2)cc1`, in assay [2], the inhibition worked out at 99%.
Regarding `c1ccc(C2=NC3CCCCC3N2)cc1` (stereo unspecified), in assay [1], the IC50 is 7.8 mM.
Same read-out and setting: to `CC(C)N1CCCN=C1c1ccccc1` belongs 7.2 mM.
On to `CC(C)CC(N)C(=O)N1CCOCC1` (stereo unspecified), for which, in assay [1], the IC50 came to 6.5 mM.
As for `CC(C)(C)OC(=O)NC(CCC(=O)O)C(=O)N1CCOCC1` (stereo unspecified), the inhibition in assay [4] is 12%.
With `CC(C)CC(NC(=O)OCc1ccccc1)C(=O)N1CCOCC1` (stereo unspecified), the outcome in assay [3] was inactive.
On to `O=C(NC(Cc1ccccc1)C(=O)N1CCOCC1)OCc1ccccc1` (stereo unspecified), for which the outcome in assay [3] was inactive.
Consider `NC(Cc1ccccc1)C(=O)N1CCOCC1` (stereo unspecified), for which the inhibition in assay [2] is 20%.
Consider `COC(=O)[C@@H]1CSC(c2ccccc2)=N1`, for which the IC50 in assay [1] was 0.025 mM.
